Data set [1] concerns the target mushroom tyrosinase. Description: Mushroom tyrosinase inhibitory assay (L-tyrosine or L-DOPA as substrate). The class given is biochemical. Particulars: for IC50: mean ± SEM of triplicate experiments; for tyrosinase inhibitory activity toward L-DOPA (in words): at any of the tested concentrations. The protocol:
The reaction mixtures were keep warm at 37 °C for 20 min. The absorbance of the mixture at 492 nm was measured using a microplate reader. The tyrosinase inhibitory activity (%) was calculated as (1 − Abssample/Abscontrol) × 100%.

Data set [2] has as its system B16F10 melanoma cells. Description: Melanin contents in α-MSH and IBMX-induced B16F10 melanoma cells. The class given is cell-based, murine. The following applies: α-MSH (5 μM) and IBMX (200 μM), 48 h, α-MSH and IBMX alone 171.30%. How it is done: (§1) Murine melanoma B16F10 cells were purchased from the Korean Cell Line Bank (Seoul, Korea). The cells were cultured in DMEM containing 10% FBS and 1% streptomycin, and then incubated at 37 °C with 5% CO2. The melanoma cells were plated at 95% confluency for all the experiments.
Cellular melanin content was determined as described previously. Cells were seeded in six-well culture plates (Nunc, Denmark) at 2 × 10^5 cells/well for 24 h. […] Cells were washed twice with PBS. After centrifugation, cell pellets were disrupted in 100 μL of 1N NaOH, and incubated at 60 °C for 1 h and mixed to solubilize the melanin. Absorbance at 405 nm was compared with a standard curve for synthetic melanin (TECAN, Salzburg, Austria).

In data set [3] the test system is intracellular tyrosinase in B16F10 melanoma cells. Description: Cellular tyrosinase activity assay in α-MSH and IBMX-induced B16F10 melanoma cells (L-DOPA oxidation). The class given is cell-based, murine. The following applies: α-MSH (5 μM) and IBMX (200 μM), 48 h, α-MSH and IBMX alone 310.39%. How it is done:
as §1
Intracellular tyrosinase inhibitory activity assay was achieved by measuring the rate of oxidation of L-DOPA [44]. Cells at a density of 1 × 10^5 cells/well were plated in 6-well plates (Nunc, Denmark) and incubated overnight. […] The cells were washed with PBS and lysed in a solution containing 100 µL of 50 mM phosphate buffer (pH 6.5), 0.1 mM phenylmethylsulfonylfluoride (PMSF), and 1% Triton X-100. The cells lysates were employed in a deep freezer (−80 °C) for 1 h. After defrosting the cell lysates, the cellular extracts were purified by centrifugation at 12,000 rpm for 30 min at 4 °C. A total of 80 µL of supernatant and 20 µL of L-DOPA (2 mg/mL) were added to a 96-well plate, and the absorbance at a wavelength of 492 nm was measured every 10 min during 1 h using an ELISA plate reader (TECAN, Salzburg, Austria). Total protein content was determined using BCA protein assay reagent (Thermo Scientific, Rockford, IL, USA).

Data set [4] relates to B16F10 melanoma cells. Description: Cell viability, EZ-Cytox assay. The class given is cell-based, murine. Particulars: concentrations up to 100 μM, 48 h. How it is done: as §1
Cell viability was assessed with the EZ-Cytox assay kit (Daeillab Service, Seoul, Korea) as previously described. In brief, B16F10 cells were seeded in 96-well plates (Corning, NY, USA) at a density of 1 × 10^4 cells/well for 24 h. The cells were fed fresh, serum-free DMEM that contained different concentrations (up to 100 μM) of 1c, and incubated for 24 h or 48 h. Then, 10 μL EZ-Cytox solution was added to each well and the cells were incubated for 2–4 h. The absorbance of cells in the absence of treatment was regarded as 100% cell survival. […] Thus, CC50 value of 1c were calculated by regression analysis.

The target of data set [5] is mushroom tyrosinase. The experiment in a line: Enzyme kinetic analysis in mushroom tyrosinase inhibition (Lineweaver-Burk and Dixon plots). The class given is biochemical. The following applies: for Ki: Dixon plot; for Inhibition type: Lineweaver-Burk plot. The protocol:
In order to estimate the kinetic mechanism, two kinetic methods using Lineweaver-Burk and Dixon plots were used. Using Lineweaver-Burk double reciprocal plots [a plot of 1/enzyme velocity (1/V) vs. 1/substrate concentration (1/[S])], the type of inhibition was determined using various concentrations of L-tyrosine (0.5, 1 and 2 mM) and L-DOPA (0.5, 1, and 2 mM), as substrates, in the absence and presence of various concentrations of 1c (3.2–80 nM; for L-tyrosine, 0.4–10 μM; for L-DOPA). […] The concentrations of 1c were as follows: 3.2–80 nM; for L-tyrosine, 0.4–10 μM; for L-DOPA. The enzymatic procedures comprised of the formerly described tyrosinase test methods. The inhibition constant (Ki) was resolute using Dixon plots.

Setting [6] is: substrate L-DOPA, read-out: IC50 (μM), L-DOPA as substrate (diphenolase / dopa oxidase).
Where [7] appears, read: substrate L-tyrosine, read-out: IC50 (μM), L-tyrosine as substrate (monophenolase / tyrosine hydroxylase).

These results are taken from PMC6222382, “A Potent Tyrosinase Inhibitor, (E)-3-(2,4-Dihydroxyphenyl)-1-(thiophen-2-yl)prop-2-en-1-one, with Anti-Melanogenesis Properties in α-MSH and IBMX-Induced B16F10 Melanoma Cells” (Molecules : A Journal of Synthetic Chemistry and Natural …, 2018).

Like-named read-outs stand apart in the source and are kept apart here.

As to `O=C(/C=C/c1ccc(O)cc1)c1cccs1` [1a, (E)-3-(4-Hydroxyphenyl)-1-(thiophen-2-yl)prop-2-en-1-one], the values for the IC50 in data set [1] (setting [6]) and in data set [1] (setting [7]) were 60.1 ± 7.85 µM and 46.2 ± 0.55 µM, respectively.
As to `O=C(/C=C/c1ccc(O)c(O)c1)c1cccs1` [1b, (E)-3-(3,4-Dihydroxyphenyl)-1-(thiophen-2-yl)prop-2-en-1-one], the melting point fell in the range of 182.5 to 185.7 °C. Further, the IC50 in data set [1] (setting [6]) worked out at 103 ± 8.47 µM. Further, the IC50 in data set [1] (setting [7]) was determined as 75.7 ± 2.46 µM.
On to `O=C(/C=C/c1ccc(O)cc1O)c1cccs1` [1c, (E)-3-(2,4-Dihydroxyphenyl)-1-(thiophen-2-yl)prop-2-en-1-one], for which the melanin contents in data set [2] (0.04 μM) was 107.29%; in data set [2] (0.2 μM), 98.15%; in data set [2] (1 μM) it was 88.09%. Besides, the figures for the intracellular tyrosinase activity in data set [3] (0.04 μM), in data set [3] (0.2 μM) and in data set [3] (1 μM) were 225.78%, 157.79% and 132.71%, respectively. Besides, in data set [4], the “cytotoxicity (cell viability)” value was “did not show any cytotoxicity”. The IC50 in data set [1] (setting [6]) was 0.93 ± 0.22 µM. For the same compound, the inhibition constant (Ki) in data set [5] (substrate L-DOPA) stood at 1.76 µM; in data set [5] (substrate L-tyrosine), 0.00501 µM. Moreover, the Inhibition type result in data set [5] (substrate L-DOPA) and in data set [5] (substrate L-tyrosine) was “competitive inhibition” each time.
`COc1cc(/C=C/C(=O)c2cccs2)ccc1O` [1d, (E)-3-(4-Hydroxy-3-methoxyphenyl)-1-(thiophen-2-yl)prop-2-en-1-one]: the melting point lay in the range of 132.8 to 135.2 °C. Moreover, in data set [1] (substrate L-DOPA), the “tyrosinase inhibitory activity toward L-DOPA (in words)” value is reported as “did not inhibit tyrosinase activity”. The IC50 in data set [1] (setting [6]) was over 200 µM. Moreover, in data set [1] (setting [7]), the IC50 was 98.8 ± 2.11 µM.
In the case of `COc1ccc(/C=C/C(=O)c2cccs2)cc1O` [1e, (E)-3-(3-Hydroxy-4-methoxyphenyl)-1-(thiophen-2-yl)prop-2-en-1-one], the IC50 in data set [1] (setting [6]) worked out at 28.7 ± 1.98 µM; in data set [1] (setting [7]), 17.4 ± 1.81 µM.
On to `COc1cc(/C=C/C(=O)c2cccs2)cc(OC)c1O` [1f, (E)-3-(4-Hydroxy-3,5-dimethoxyphenyl)-1-(thiophen-2-yl)prop-2-en-1-one], for which the melting point was in the range of 143.6 to 147.3 °C. The “tyrosinase inhibitory activity toward L-DOPA (in words)” value in data set [1] (substrate L-DOPA) is on record as “did not inhibit tyrosinase activity”. The IC50 in data set [1] (setting [6]) was over 200 µM. For the same compound, in data set [1] (setting [7]), the IC50 worked out at 77.9 ± 8.74 µM.
`O=C(/C=C/c1ccc(O)c(Br)c1)c1cccs1` [1g, (E)-3-(3-Bromo-4-hydroxyphenyl)-1-(thiophen-2-yl)prop-2-en-1-one] came in with a melting point of 195.2 to 199.6 °C. Besides, the IC50 in data set [1] (setting [6]) was 112 ± 14.3 µM. For the same compound, in data set [1] (substrate L-tyrosine), the “tyrosinase inhibitory activity toward L-tyrosine (in words)” value was “inactive”.
`O=C(/C=C/c1cc(Br)c(O)c(Br)c1)c1cccs1` [1h, (E)-3-(3,5-Dibromo-4-hydroxyphenyl)-1-(thiophen-2-yl)prop-2-en-1-one] returned a melting point of 269.3 to 272 °C. Besides, the “tyrosinase inhibitory activity toward L-DOPA (in words)” value in data set [1] (substrate L-DOPA) is “did not inhibit tyrosinase activity”. Moreover, the IC50 in data set [1] (setting [6]) is over 200 µM. In addition, the “tyrosinase inhibitory activity toward L-tyrosine (in words)” value in data set [1] (substrate L-tyrosine) is “inactive”.
Regarding `O=c1cc(CO)occ1O` [Kojic acid, kojic acid, reference compound], the melanin contents in data set [2] (10 μM) is listed as 118.19%. The intracellular tyrosinase activity in data set [3] (10 μM) worked out at 225.54%.
